This data set addresses ATP-dependent translocase ABCB1 (Mus musculus, UniProt P21447). Nature of the data set: TP_TRANSPORTER: increase in brain concentration in mdr1a(-/-) mouse. The class given is functional, organism-based. The following applies: in vivo.

Sequence of ATP-dependent translocase ABCB1 (P21447 whole entry): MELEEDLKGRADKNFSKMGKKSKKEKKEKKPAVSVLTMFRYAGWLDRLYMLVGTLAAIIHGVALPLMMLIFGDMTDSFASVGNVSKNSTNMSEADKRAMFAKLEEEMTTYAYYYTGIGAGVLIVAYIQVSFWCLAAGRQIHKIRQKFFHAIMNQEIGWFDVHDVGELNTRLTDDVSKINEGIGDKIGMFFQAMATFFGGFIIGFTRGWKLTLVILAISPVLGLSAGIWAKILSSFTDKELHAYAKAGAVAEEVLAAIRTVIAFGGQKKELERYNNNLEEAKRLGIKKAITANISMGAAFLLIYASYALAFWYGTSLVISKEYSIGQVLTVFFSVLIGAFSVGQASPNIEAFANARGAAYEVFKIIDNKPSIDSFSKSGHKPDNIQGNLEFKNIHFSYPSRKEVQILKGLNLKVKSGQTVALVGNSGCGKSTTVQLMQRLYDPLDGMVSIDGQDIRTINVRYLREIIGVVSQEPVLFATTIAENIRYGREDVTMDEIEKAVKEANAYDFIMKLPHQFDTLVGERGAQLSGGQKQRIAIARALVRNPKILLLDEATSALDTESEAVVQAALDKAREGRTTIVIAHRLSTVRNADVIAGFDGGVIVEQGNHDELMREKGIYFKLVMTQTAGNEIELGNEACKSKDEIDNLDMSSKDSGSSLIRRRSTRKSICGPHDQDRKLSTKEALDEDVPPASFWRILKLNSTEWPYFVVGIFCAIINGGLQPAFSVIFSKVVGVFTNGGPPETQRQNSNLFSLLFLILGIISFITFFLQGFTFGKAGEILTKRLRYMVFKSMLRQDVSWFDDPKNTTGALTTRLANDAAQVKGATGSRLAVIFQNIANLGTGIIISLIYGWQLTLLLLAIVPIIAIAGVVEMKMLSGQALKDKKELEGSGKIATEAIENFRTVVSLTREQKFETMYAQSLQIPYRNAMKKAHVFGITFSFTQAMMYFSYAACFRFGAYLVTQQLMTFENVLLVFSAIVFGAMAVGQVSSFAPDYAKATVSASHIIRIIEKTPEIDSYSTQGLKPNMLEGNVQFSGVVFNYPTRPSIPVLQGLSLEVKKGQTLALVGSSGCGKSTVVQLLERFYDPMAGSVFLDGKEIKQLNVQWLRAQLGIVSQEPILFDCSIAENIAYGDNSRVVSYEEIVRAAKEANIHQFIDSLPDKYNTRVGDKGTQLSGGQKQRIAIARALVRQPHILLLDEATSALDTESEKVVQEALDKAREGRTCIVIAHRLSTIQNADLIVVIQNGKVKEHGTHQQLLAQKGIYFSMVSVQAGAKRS

`C/C=C/C[C@@H](C)C(=O)[C@H]1C(=O)N[C@@H](C(C)C)C(=O)N(C)CC(=O)N(C)[C@@H](CC(C)C)C(=O)N[C@@H](C(C)C)C(=O)N(C)[C@@H](CC(C)C)C(=O)N[C@@H](C)C(=O)N[C@H](C)C(=O)N(C)[C@@H](CC(C)C)C(=O)N(C)[C@@H](CC(C)C)C(=O)N(C)[C@@H](C(C)C)C(=O)N1C` [VALSPODAR]: the Activity result was “substrate [+]”.

The values are drawn from ChEMBL document CHEMBL2074373, “Effect of the Mdr1a P-glycoprotein gene disruption on the tissue distribution of SDZ PSC 833, a multidrug resistance-reversing agent, in mice” (J Pharmacol Exp Ther, 1998).
